Results as given in ChEMBL document CHEMBL3272303.
The source made the active and inactive calls. The rule behind the calls is not given here.

Key:
[1] = molecular target: Beta-2 adrenergic receptor (Cavia porcellus) (UniProt Q8K4Z4); conditions: Trachea
[2] = molecular target: Beta-2 adrenergic receptor (Rattus norvegicus) (UniProt P10608); experiment: Agonist activity at beta 2 adrenergic receptor in Sprague-Dawley rat adipocytes assessed as lipolysis at 10^-9 to 10^-4 M after 1 hr; assay type: cell-based
[3] = molecular target: Beta-1 adrenergic receptor (Cavia porcellus) (UniProt B0FL73); experiment: Antagonist activity at beta 1 adrenergic receptor in guinea pig right atria assessed as inhibition of 10^-3 M trimetoquinol-induced chronotropic response at 10^-4 M preincubated for 30 mins followed by trimetoquinol addition measured within 1 hr
[4] = molecular target: Beta-1 adrenergic receptor (Cavia porcellus) (UniProt B0FL73); experiment: Antagonist activity at beta 1 adrenergic receptor in guinea pig right atria assessed as inhibition of 10^-3 M isoproterenol-induced chronotropic response at 10^-4 M
[5] = molecular target: Beta-1 adrenergic receptor (Cavia porcellus) (UniProt B0FL73); experiment: Antagonist activity at beta 1 adrenergic receptor in guinea pig right atria assessed as inhibition of trimetoquinol-induced chronotropic response at 10^-4 M preincubated for 30 mins followed by trimetoquinol addition measured within 45 mins relative to control
[6] = molecular target: Beta-1 adrenergic receptor (Cavia porcellus) (UniProt B0FL73); experiment: Competitive antagonist activity at beta 1 adrenergic receptor in guinea pig right atria assessed as inhibition of trimetoquinol-induced chronotropic response at 10^-6 to 10^-5 M preincubated for 30 mins followed by trimetoquinol addition measured within 1 hr
[7] = molecular target: Beta-2 adrenergic receptor (Cavia porcellus) (UniProt Q8K4Z4); experiment: Antagonist activity at beta 2 adrenergic receptor in guinea pig trachea assessed as inhibition of trimetoquinol-induced tracheal relaxation at 10^-4 M preincubated for 30 mins followed by trimetoquinol addition measured within 1 hr
[8] = molecular target: Beta-2 adrenergic receptor (Cavia porcellus) (UniProt Q8K4Z4); experiment: Agonist activity at beta 2 adrenergic receptor in guinea pig trachea assessed as tracheal relaxation at 10^-9 to 10^-4 M
[9] = molecular target: Beta-1 adrenergic receptor (Cavia porcellus) (UniProt B0FL73); experiment: Partial agonist activity at beta 1 adrenergic receptor in guinea pig right atria assessed as chronotropic response measured over 3 mins

Sequence of Beta-2 adrenergic receptor (Cavia porcellus) (Q8K4Z4 whole entry, looked up): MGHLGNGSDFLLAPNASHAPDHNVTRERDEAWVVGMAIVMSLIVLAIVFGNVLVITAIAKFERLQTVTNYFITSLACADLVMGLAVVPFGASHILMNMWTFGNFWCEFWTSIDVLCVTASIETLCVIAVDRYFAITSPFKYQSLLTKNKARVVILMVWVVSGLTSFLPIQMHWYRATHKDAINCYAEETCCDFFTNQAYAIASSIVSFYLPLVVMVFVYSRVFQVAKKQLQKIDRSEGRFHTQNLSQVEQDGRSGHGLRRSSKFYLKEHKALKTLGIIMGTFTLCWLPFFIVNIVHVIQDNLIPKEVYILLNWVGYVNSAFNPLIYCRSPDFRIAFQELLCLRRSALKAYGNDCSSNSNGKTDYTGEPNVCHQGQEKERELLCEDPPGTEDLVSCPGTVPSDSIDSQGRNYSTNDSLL
Sequence of Beta-1 adrenergic receptor (Cavia porcellus) (B0FL73 1-467): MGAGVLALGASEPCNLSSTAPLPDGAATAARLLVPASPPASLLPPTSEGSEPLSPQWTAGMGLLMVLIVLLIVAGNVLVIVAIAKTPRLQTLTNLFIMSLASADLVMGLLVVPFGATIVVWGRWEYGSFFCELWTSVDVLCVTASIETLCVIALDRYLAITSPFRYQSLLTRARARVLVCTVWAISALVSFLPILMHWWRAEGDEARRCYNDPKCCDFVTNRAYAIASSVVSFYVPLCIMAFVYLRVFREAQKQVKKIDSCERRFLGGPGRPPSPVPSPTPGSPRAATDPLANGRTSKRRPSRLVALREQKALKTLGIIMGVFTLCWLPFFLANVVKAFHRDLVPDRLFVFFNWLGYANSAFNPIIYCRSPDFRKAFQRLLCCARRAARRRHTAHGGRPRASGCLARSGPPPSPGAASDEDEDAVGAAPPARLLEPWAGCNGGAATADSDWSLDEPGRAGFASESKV
Sequence of Beta-2 adrenergic receptor (Rattus norvegicus) (P10608 whole entry, looked up): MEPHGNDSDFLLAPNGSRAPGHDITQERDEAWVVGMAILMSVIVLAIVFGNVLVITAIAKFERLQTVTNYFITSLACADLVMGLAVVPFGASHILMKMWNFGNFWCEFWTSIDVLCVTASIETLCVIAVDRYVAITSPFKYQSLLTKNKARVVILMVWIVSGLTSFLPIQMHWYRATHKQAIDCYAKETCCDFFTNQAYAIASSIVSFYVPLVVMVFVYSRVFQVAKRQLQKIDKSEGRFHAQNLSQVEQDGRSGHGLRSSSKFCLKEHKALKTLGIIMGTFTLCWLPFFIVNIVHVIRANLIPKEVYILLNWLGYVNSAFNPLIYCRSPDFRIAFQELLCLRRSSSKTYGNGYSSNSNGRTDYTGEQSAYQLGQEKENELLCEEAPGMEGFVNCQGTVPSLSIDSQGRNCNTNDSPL

pD2 [1]	Activity [2]	inhibition [3]	inhibition [4]	inhibition [5] [%]	inhibition [6]	inhibition [7]	Activity [8]	Activity [9]	Structure (SMILES)
7	–	–	–	–	–	–	–	–	COc1cc(C[C@@H]2NCCc3cc(O)c(O)cc32)cc(OC)c1OC
–	inactive	Active	Active	< 10	Active	inactive	inactive	–	COc1cc(CC2(Cc3ccccc3)NCCc3cc(O)c(O)cc32)cc(OC)c1OC (configuration not stated)
–	inactive	–	–	–	–	inactive	inactive	Active	COc1cc(CC2(C)NCCc3cc(O)c(O)cc32)cc(OC)c1OC (configuration not stated)
